Measurements published in US7863298B2, “Bridged ring structures as pharmaceutical agents” (Exelixis, Inc., priority 2003, dated 2011).

Test system: not listed separately
Experiment: plasma calcium determination in athymic nude mice
Assay type: in vivo
Conditions: four doses, oral gavage every other day for 14 days, Day 14; FIG. 1
Experimental: A (three day) effective dose study was conducted on normal BALB/c mice in order to select a compound for the athymic nude mice study described below. Two-week old male Balb/c mice (Harlan) were weighed and sorted into groups of six according to Day-1 weight. Animals were given a standard diet and housed under normal lighting conditions. Compounds were administered in sesame oil vehicle with 4% ethanol. Ethanol was removed by evaporation by sparging with nitrogen prior to dosing orally by gavage via a 1 cc syringe with a 20 G disposable feeding needle (0.1 mL dose volume). Dosing was daily for three days, with animal weights measured on Days 0, 1 and 3. […] Animal weights were monitored on Day 3, 7, 10 and 14. […]
Calcium determination was carried out in a micronized plate format with heparinized plasma samples utilizing a colorimetric assay (Sigma 588-3). […] When present in an acidic medium, the calcium Arsenazo complex forms a purple color that was determined using a standard plate reader at […] against a standard curve.
FIG. 1 compares the effect of 1α,25-dihydroxyvitamin D3, against four different doses of one selected compound of the current invention, Compound B on plasma calcium levels in athymic nude mice at Day 14 measured 3 hours after final dose. Dosage is measured in μg/kg and plasma calcium levels are in mg/dl. […]

| Structure (SMILES) | plasma calcium concentration |
| --- | --- |
| CCC(CC)(c1ccc(C#CC(O)C(C)(C)C)c(C)c1)c1ccc(OC[C@@H](O)CO)c(C)c1 (single isomer, unassigned) [compound B] | without elevating plasma calcium concentration |

Test system: 24-hydroxylase
Experiment: kidney 24-hydroxylase gene expression in athymic nude mice (RT-PCR)
Assay type: in vivo
Conditions: four doses, oral gavage every other day for 14 days; FIG. 2
Experimental: A (three day) effective dose study was conducted on normal BALB/c mice in order to select a compound for the athymic nude mice study described below. Two-week old male Balb/c mice (Harlan) were weighed and sorted into groups of six according to Day-1 weight. Animals were given a standard diet and housed under normal lighting conditions. Compounds were administered in sesame oil vehicle with 4% ethanol. Ethanol was removed by evaporation by sparging with nitrogen prior to dosing orally by gavage via a 1 cc syringe with a 20 G disposable feeding needle (0.1 mL dose volume). Dosing was daily for three days, with animal weights measured on Days 0, 1 and 3. […] Animal weights were monitored on Day 3, 7, 10 and 14. […] The RT reactions were performed in a DNA Engine thermal cycler (PTC-200, MJ Research) (50° C. 30 minutes; 72° C. 5 minutes) Real-Time Quantitative PCR was performed in a 384 well assay plate using the Prism 7900HT (ABI) using the entire product from the reverse transcription reaction above (5 uL). […] Results were analyzed using the data analysis and software packet (SDS) provided with the instrumentation. FIG. 1 compares the effect of 1α,25-dihydroxyvitamin D3, against four different doses of one selected compound of the current invention, Compound B on plasma calcium levels in athymic nude mice at Day 14 measured 3 hours after final dose. […]

| Structure (SMILES) | RNA expression of kidney 24-hydroxylase (relative to cyclophilin) |
| --- | --- |
| CCC(CC)(c1ccc(C#CC(O)C(C)(C)C)c(C)c1)c1ccc(OC[C@@H](O)CO)c(C)c1 (single isomer, unassigned) [compound B] | dose responsive increase |

Target: T1, VDR (Homo sapiens, UniProt P11473)
T1 construct: expressed in transfected cells; host or cells: CV-1 (African green monkey kidney cells), transient transfection
T1 sequence (P11473 92-425): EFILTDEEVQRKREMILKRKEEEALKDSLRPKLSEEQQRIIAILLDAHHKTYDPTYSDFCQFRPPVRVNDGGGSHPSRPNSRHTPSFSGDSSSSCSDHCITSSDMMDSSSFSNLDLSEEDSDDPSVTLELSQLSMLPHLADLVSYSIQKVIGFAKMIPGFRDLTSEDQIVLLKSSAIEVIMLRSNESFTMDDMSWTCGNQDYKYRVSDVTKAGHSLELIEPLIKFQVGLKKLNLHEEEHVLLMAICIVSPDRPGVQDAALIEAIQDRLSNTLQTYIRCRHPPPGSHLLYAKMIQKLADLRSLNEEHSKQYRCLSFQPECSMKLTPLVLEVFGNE
T1 sequence (Q15788 381-891 partner limits assumed): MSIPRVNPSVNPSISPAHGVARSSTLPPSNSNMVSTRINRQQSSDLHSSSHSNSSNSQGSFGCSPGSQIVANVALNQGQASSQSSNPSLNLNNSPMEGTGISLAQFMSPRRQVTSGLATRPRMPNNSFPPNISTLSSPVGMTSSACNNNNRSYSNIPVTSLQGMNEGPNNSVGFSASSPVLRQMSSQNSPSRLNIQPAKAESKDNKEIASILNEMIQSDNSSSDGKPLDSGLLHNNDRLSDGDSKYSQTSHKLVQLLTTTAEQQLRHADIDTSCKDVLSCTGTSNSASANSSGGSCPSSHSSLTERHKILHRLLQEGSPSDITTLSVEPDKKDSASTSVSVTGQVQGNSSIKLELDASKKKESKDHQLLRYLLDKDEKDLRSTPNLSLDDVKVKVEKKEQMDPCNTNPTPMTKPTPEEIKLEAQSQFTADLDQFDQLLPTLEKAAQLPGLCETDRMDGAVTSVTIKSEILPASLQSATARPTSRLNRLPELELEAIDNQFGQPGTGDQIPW
Experiment: modified mammalian two-hybrid assay (VDR / SRC-1 interaction, luciferase reporter)
Assay type: cell-based
Conditions: CV-1 cells, exemplary compounds, read-out: agonist activity EC50
Experimental: Compound activity was determined using a modified mammalian two-hybrid assay, using the interaction of VDR to the co-factor SRC-1 to monitor receptor activation.
Following incubation with transfection reagents for 5 hours at 37° C., transfected cells were trypsinized, centrifuged, resuspended in media and added to the assay plates, (45 μl, 5000 cells per well). The assay plates containing both compounds and screening cells were incubated for approximately 20 hours at 37° C. in a tissue culture incubator.
After incubation of the transfected cells with compounds, media was aspirated and lysis buffer (1% Triton X 100, 10% Glycerol, 5 mM Dithiothreitol,1 mM EGTA, 25 mM Tricine pH 7.8) added.

| Structure (SMILES) | EC50 |
| --- | --- |
| CC(=O)N1CCC(c2ccc(OCC(=O)C(C)(C)C)c(C)c2)(c2ccc(OCC(=O)C(C)(C)C)c(C)c2)CC1 [1-(4-{1-Acetyl-4-[4-(3,3-dimethyl-2-oxo-butoxy)-3-methyl-phenyl]-piperidin-4-yl}-2-methyl-phenoxy)-3,3-dimethyl-butan-2-one] | < 10 µM |
| Cc1cc(C(c2ccccc2)(c2ccc(OCC(O)C(C)(C)C)c(C)c2)C(F)(F)F)ccc1OCC(O)CO (stereo not drawn) [3-(2-Methyl-4-{2,2,2-trifluoro-1-[4-(2-hydroxy-3,3-dimethyl-butoxy)-3-methyl-phenyl]-1-phenyl-ethyl}-phenoxy)-propane-1,2-diol] | < 10 µM |
| CCC(CC)(c1ccc(/C=C\C(O)C(C)(C)C)c(C)c1)c1ccc(OC[C@@H](O)CO)c(C)c1 (stereo partly drawn) [(Z)-3-(4-{1-ethyl-1-[4-(3-hydroxy-4,4-dimethylpent-1-enyl)-3-methylphenyl]-propyl}-2-methylphenoxy)-propane-1,2(S)-diol] | < 10 µM |
| CCC(CC)(c1ccc(CCC(O)C(C)(C)C)cc1)c1ccc(OC[C@@H](O)CO)c(C)c1 (stereo partly drawn) [3-(4-{1-Ethyl-1-[4-(3-hydroxy-4,4-dimethylpentyl)-phenyl]-propyl}-2-methylphenoxy)-propane-1,2(S)-diol] | < 10 µM |
| CCC(O)(CC)CCc1ccc(C(CC)(CC)c2ccc(OC[C@@H](O)CO)c(C)c2)cc1C [3-(4-{1-ethyl-1-[4-(3-ethyl-3-hydroxypentyl)-3-methylphenyl]-propyl}-2-methyl-phenoxy)-propane-1,2(S)-diol] | < 10 µM |
| CCC(CC)(c1ccc(CCC(C)(C)O)c(C)c1)c1ccc(OC[C@@H](O)CO)c(C)c1 [3-(4-{1-ethyl-1-[4-(3-hydroxy-3-methylbutyl)-3-methylphenyl]-propyl}-2-methylphenoxy)-propane 1,2(S)-diol] | < 10 µM |
| Cc1cc(C(c2ccccc2)(c2ccc(OCC(O)C(C)(C)C)c(C)c2)C(F)(F)C(F)(F)F)ccc1OCC(O)CO (stereo not drawn) [3-(2-Methyl-4-{2,2,3,3,3-pentafluoro-1-[4-(2-hydroxy-3,3-dimethyl-butoxy)-3-methyl-phenyl]-1-phenyl-propyl}-phenoxy)-propane-1,2-diol] | < 10 µM |
